A short description of this data set: physchem. The text has this: The solvents and co-solvents are listed by percentage of volume.

Consider one molecule from patent US20050203482A1, “Pharmaceutical dispensing apparatus and method” (priority 2004, published 2005).

What is called solubility is the dissolved amount per volume that the medium holds.

The structures appear in SMILES notation. In brackets after ≈: the same amount, converted by molar mass.

Consider `C[C@H]1O[C@@H](O[C@H]2[C@@H](O)C[C@H](O[C@H]3[C@@H](O)C[C@H](O[C@H]4CC[C@@]5(C)[C@H](CC[C@@H]6[C@@H]5C[C@@H](O)[C@]5(C)[C@@H](C7=CC(=O)OC7)CC[C@]65O)C4)O[C@@H]3C)O[C@@H]2C)C[C@H](O)[C@@H]1O` [Digoxin], for which the solubility is 56 mg/mL (≈ 71.7 mM) (aqueous with cosolvent or surfactant or cyclodextrin, solvent 2-P 56%, co-solvent Water 44%, approximate); 52 mg/mL (≈ 66.6 mM) (aqueous with cosolvent or surfactant or cyclodextrin, solvent 55% Water, co-solvent 45% H-107, approximate); 9 mg/mL (≈ 11.5 mM) (aqueous with cosolvent or surfactant or cyclodextrin, solvent Ethanol 80%, co-solvent Water 17%, additive Glycerin 3%, approximate); below 21.9 mg/mL (organic solvent or mixture, solvent 1,5-pentanediol, approximate); at least 75 mg/mL (organic solvent or mixture, solvent 2-P 80%, co-solvent Ethanol 20%, approximate); 102 mg/mL (≈ 131 mM) (organic solvent or mixture, solvent 2-P 100%, approximate). The solubility was below 30 mg/mL (organic solvent or mixture, solvent Acetone, approximate); 200 mg/mL (≈ 256 mM) (organic solvent or mixture, solvent DMSO 80%, co-solvent (EtOH) ethanol alcohol 20%, approximate); 9 mg/mL (≈ 11.5 mM) (organic solvent or mixture, solvent Ethanol 100%, approximate); below 16.3 mg/mL (organic solvent or mixture, solvent Ethyl acetate, approximate); below 16.3 mg/mL (organic solvent or mixture, solvent Ethylene glycol (LEG), approximate); below 14.2 mg/mL (organic solvent or mixture, solvent Glycerine, approximate). Also, the solubility was 0.25 mg/mL (≈ 0.32 mM) (organic solvent or mixture, solvent Polyethylene glycol 400 90% Absolute ethanol 6%, co-solvent Water 1%, additive Propylene glycol 3%, approximate); below 19.3 mg/mL (organic solvent or mixture, solvent Polyethylene glycols (PEGs), approximate); 0.024 to 0.07 mg/mL (≈ 0.0307 to 0.0896 mM) (water, solvent Water, approximate).
